Assay results: US20250090659A1, “COMBINATION THERAPY WITH AN ANTI-CD19 ANTIBODY AND PARSACLISIB” (Incyte Corporation, priority 2020, published 2025)

What was measured:
WSU-NHL cells = assay: Cell proliferation (Cell titer Glo), WSU-NHL; type: cell-based; conditions: no NK cells, 24, 48 and 72 hours
Description: (§1) Besides ADCC cytotoxicity, effects of tafasitamab and parsaclisib on cell proliferation were also evaluated by treating target cells with matrix dosing of tafasitamab and parsaclisib in the absence of NK cells. After 24 hours, 48 hours, and 72 hours, proliferation was assessed by adding 100 ul of Cell titer Glo to wells containing 100 ul of treated cells in duplicates. The data was presented as RLUs, which is in proportion to cell proliferation.

SuDHL6 cells = assay: Cell proliferation (Cell titer Glo), SuDHL6; type: cell-based; conditions: no NK cells, 24, 48 and 72 hours
Description: as §1

Pfeiffer cells = assay: Cell proliferation (Cell titer Glo), Pfeiffer; type: cell-based; conditions: no NK cells, 24, 48 and 72 hours
Description: as §1

SuDHL4 cells = assay: Cell proliferation (Cell titer Glo), SuDHL4; type: cell-based; conditions: no NK cells, 24, 48 and 72 hours
Description: as §1

[1] = system: A20 murine lymphoma cells; assay: In vivo efficacy in A20 mouse lymphoma model; set-up: species or system Balb/c mice
Description: Female Balb/c mice were subcutaneously inoculated with 5×10^5 A20 murine lymphoma cells to form flank tumors. When tumors reached approximately 100 mm^3, mice were randomized into 4 groups for dosing (N=10 mice/group). Dosing groups were as follows: (1) Vehicle (5% dimethyl acetimde+95% methylcellulose)-administered by mouth twice a day; (2) Murine anti-CD19 antibody (12014B35 from Absolute Antibody)—[…] administered intraperitoneally once weekly; (3) Parsaclisib (INCB050465)—3 mg/kg administered by mouth twice a day; and (4) Murine anti-CD19 antibody+Parsaclisib.
Tumor volumes were measured twice weekly. The study concluded when mean tumor volumes of each group reached 2000 mm^3. All doses were tolerated as assessed by body weights. Percent tumor growth inhibition (TGI %) was calculated by: [1-(mean tumor volume of test group)/(mean tumor volume of vehicle group)]×100. Tumor growth delay (TGD) was determined by the number of days needed (approximate) after dosing ceases for mean tumor volumes of dosed groups to reach the final mean tumor volume of the vehicle group.

JVM2 cells [2] = assay: ADCC assay with NK cells, JVM2 target cells; type: cell-based; conditions: JVM2 cells pre-treated 7 days with parsaclisib 0.3 to 20 μM or DMSO, E:T 2:1, tafasitamab 1:10 dilutions from 1 μg/ml, 4 hours, dead target cells by flow cytometry
Description: (§2) The cytotoxicity of tafasitamab and parsaclisib (INCB050465) alone and in combination was tested in the following cells lines: MEC-1 (CLL), MEC-2 (CLL), JVM-2 (Mantle Cell Lymphoma), WSU-NHL, Pfeiffer, Su-DHL4, and Su-DHL6.
(§3) Target cells were pre-treated for 7 days with various doses of parsaclisib in the range of 0.3 to 20 μM (parsaclisib alone group and tafasitamab and parsaclisib combination group). The tafasitamab alone group was pre-treated with DMSO for the same period of time.
NK cells were isolated from human primary PBMC from multiple donors using EasySep™ Human NK Cell Isolation Kit (STEMCELL Technologies) and frozen. NK cells were thawed and cultured overnight in medium supplemented with 2 IU/ml of IL-2 (Peprotech) 24 hours before the ADCC assay. […]
(§4) The cytotoxicity of tafasitamab alone was evaluated following the same procedure in cells that were treated with DMSO. […] After 4 hours incubation, cells were stained with Zombie Violet fixable cell viability dye (Biolegend 423114) and measured by flow cytometry to evaluate cell toxicity. […]
Data from two separately conducted experiments were analyzed to assess potential synergistic activity of tafasitamab and parsaclisib in JVM2 cells. […] Synergy scores were calculated using SynergyFinder 2.0 (https://synergyfinder.fimm.fi). […]

Mec1 cells = assay: ADCC assay with NK cells, Mec1 target cells; type: cell-based; conditions: Mec1 cells pre-treated 7 days with parsaclisib 0.3 to 20 μM or DMSO, E:T 2:1, tafasitamab 1:10 dilutions from 1 μg/ml, 4 hours, dead target cells by flow cytometry
Description: as §2, §3
NK cells were isolated from human primary PBMC from multiple donors using EasySep™ Human NK Cell Isolation Kit (STEMCELL Technologies) and frozen. NK cells were thawed and cultured overnight in medium supplemented with 2 IU/ml of IL-2 (Peprotech) 24 hours before the ADCC assay.
The following controls were used in all experiments: (i) Target cells+NK cells without antibodies; (ii) Target cells+NK cells+huIgG1 isotype control antibody; and (iii) Target cells alone. […]
as §4

JVM2 cells [3] = assay: Cell proliferation (Cell titer Glo), JVM2; type: cell-based; conditions: no NK cells, 24, 48 and 72 hours
Description: as §1

Mec2 cells = assay: Cell proliferation (Cell titer Glo), Mec2; type: cell-based; conditions: no NK cells, 24, 48 and 72 hours
Description: as §1

Molecule | cell proliferation (RLUs) (WSU-NHL cells) | cell proliferation (RLUs) (SuDHL6 cells) | cell proliferation (RLUs) (Pfeiffer cells) | cell proliferation (RLUs) (SuDHL4 cells) | TGI (%) ([1]; A20 flank tumors in Balb/c mice, antibody 150 mg i.p. once weekly, parsaclisib 3 mg/kg by mouth twice a day, vs vehicle group) | TGD ([1]; approximate days after dosing ceases for mean tumor volume to reach final mean tumor volume of vehicle group) [days] | ADCC activity (JVM2 cells [2]) | ADCC activity (Mec1 cells) | cell proliferation (RLUs) (JVM2 cells [3]) | cell proliferation (RLUs) (Mec2 cells)
CCOc1c(C(C)n2nc(C)c3c(N)ncnc32)cc(Cl)c(F)c1C1CNC(=O)C1 (stereo not drawn) [Parsaclisib, 4-{3-[1-(4-amino-3-methyl-1H-pyrazolo[3,4-d]pyrimidin-1-yl)ethyl]-5-chloro-2-ethoxy-6-fluorophenyl}pyrrolidin-2-one] | proliferation was inhibited by the treatment of parsaclisib in time and dose dependent manners | showed sensitivity to neither | proliferation was inhibited by the treatment of parsaclisib in time and dose dependent manners | showed sensitivity to neither | 26.6 | 1.4 |  |  |  | 
Tafasitamab: IgG1-G2/kappa Fc-engineered (S239D, I332E) monoclonal antibody targeting human CD19; heavy chain SEQ ID NO:2, light chain SEQ ID NO:3 (antibody) heavy: EVQLVESGGGLVKPGGSLKLSCAASGYTFTSYVMHWVRQAPGKGLEWIGYINPYNDGTKYNEKFQGRVTISSDKSISTAYMELSSLRSEDTAMYYCARGTYYYGTRVFDYWGQGTLVTVSSASTKGPSVFPLAPSSKSTSGGTAALGCLVKDYFPEPVTVSWNSGALTSGVHTFPAVLQSSGLYSLSSVVTVPSSSLGTQTYICNVNHKPSNTKVDKKVEPKSCDKTHTCPPCPAPELLGGPDVFLFPPKPKDTLMISRTPEVTCVVVDVSHEDPEVQFNWYVDGVEVHNAKTKPREEQFNSTFRVVSVLTVVHQDWLNGKEYKCKVSNKALPAPEEKTISKTKGQPREPQVYTLPPSREEMTKNQVSLTCLVKGFYPSDIAVEWESNGQPENNYKTTPPMLDSDGSFFLYSKLTVDKSRWQQGNVFSCSVMHEALHNHYTQKSLSLSPGK light: DIVMTQSPATLSLSPGERATLSCRSSKSLQNVNGNTYLYWFQQKPGQSPQLLIYRMSNLNSGVPDRFSGSGSGTEFTLTISSLEPEDFAVYYCMQHLEYPITFGAGTKLEIKRTVAAPSVFIFPPSDEQLKSGTASVVCLLNNFYPREAKVQWKVDNALQSGNSQESVTEQDSKDSTYSLSSTLTLSKADYEKHKVYACEVTHQGLSSPVTKSFNRGEC |  | showed sensitivity to neither |  | showed sensitivity to neither |  |  | displayed ADCC activity in a dose dependent manner | displayed ADCC activity in a dose dependent manner | proliferation was inhibited by tafasitamab in time and dose dependent manners | proliferation was inhibited by tafasitamab in time and dose dependent manners
